Assay [1] can be described thus: Displacement of [3H]2-BFI from I2IR in Sprague-Dawley rat brain cortex incubated for 45 mins by liquid scintillation spectrometry.
Assay [2] is described as follows: Displacement of [3H]2-BFI from I2IR in Swiss mouse brain cortex incubated for 45 mins by liquid scintillation spectrometry.
Assay [3] in a line: Displacement of [3H]2-BFI from I2IR in human brain frontal cortex assessed as binding affinity at high affinity site incubated for 45 mins by liquid scintillation spectrometry. The class given is tissue-based.
The target in assay [4] is T1, Alpha-2A adrenergic receptor (Homo sapiens, UniProt P08913).
T1 sequence (P08913 whole entry): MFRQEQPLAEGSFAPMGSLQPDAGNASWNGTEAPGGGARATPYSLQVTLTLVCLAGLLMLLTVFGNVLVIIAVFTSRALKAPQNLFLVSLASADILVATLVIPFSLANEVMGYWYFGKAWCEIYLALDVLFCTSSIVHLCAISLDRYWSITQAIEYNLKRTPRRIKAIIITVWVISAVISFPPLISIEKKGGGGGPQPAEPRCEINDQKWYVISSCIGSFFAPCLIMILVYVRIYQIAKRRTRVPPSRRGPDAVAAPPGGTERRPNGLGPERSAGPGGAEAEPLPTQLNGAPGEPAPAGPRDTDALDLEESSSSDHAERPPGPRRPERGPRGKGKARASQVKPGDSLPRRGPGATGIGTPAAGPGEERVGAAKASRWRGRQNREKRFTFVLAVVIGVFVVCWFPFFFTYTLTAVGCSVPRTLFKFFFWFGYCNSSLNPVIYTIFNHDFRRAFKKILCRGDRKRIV
In words: biochemical.
Description: Displacement of [3H]RX821002 from alpha2-AR in human brain frontal cortex incubated for 30 mins by liquid scintillation spectrometry

The species named for assay [5] is Homo sapiens. As to the kind of experiment: Displacement of [3H]2-BFI from I2IR in human brain frontal cortex assessed as binding affinity at high affinity site incubated for 45 mins by liquid scintillation spectrometry relative to control. The class given is tissue-based. Details: concentration or dose not given beside the values.
The nature of assay [6]: Displacement of [3H]2-BFI from I2IR in Wistar rat brain cortex incubated for 90 mins by radioligand binding assay.
The species entered for assay [7] is Homo sapiens. As to the kind of experiment: Selectivity ratio of Ki for alpha2-AR high binding site in human brain frontal cortex to Ki for I2IR high binding site in human brain frontal cortex.
Assay [8] in a line: Displacement of [3H]2-BFI from I2IR in human brain frontal cortex assessed as binding affinity at low affinity site incubated for 45 mins by liquid scintillation spectrometry. The class given is tissue-based.
The species named for a further assay is Rattus norvegicus. As to the kind of experiment: Displacement of [3H]2-BFI from I2IR in Sprague-Dawley rat brain cortex assessed as binding affinity at high binding site incubated for 45 mins by liquid scintillation spectrometry relative to control.
Assay [9] is described as follows: Displacement of [3H]2-BFI from I2IR in Sprague-Dawley rat brain cortex assessed as binding affinity at high binding site incubated for 45 mins by liquid scintillation spectrometry.
The nature of assay [10]: Displacement of [3H]2-BFI from I2IR in Sprague-Dawley rat brain cortex assessed as binding affinity at low binding site incubated for 45 mins by liquid scintillation spectrometry.

Regarding `c1ccc2c(c1)OCC(C1=NCCN1)O2` (stereo unspecified) [IDAZOXAN], the results for the pKi in [1], in assay [2] and in assay [3] were 7.17, 5.68 and 7.74, respectively.
For the compound `c1ccc(-c2ncc3cc(-n4ccnc4)ccc3n2)cc1`, the Ki in assay [4] was 2240 µM; in assay [6], 0.019 µM. For the same compound, the Activity in the assay filed under Homo sapiens [5] is 29%. Moreover, in [6], the IC50 came to 0.596 µM. Besides, the Ratio Ki in the assay listed under Homo sapiens [7] is 117000. The figures for the pKi in assay [3] and in [8] were 7.72 and 5.45, respectively.
With `Cn1c(C2=NCCN2)cc2ccccc21`, in the assay listed under Rattus norvegicus, the inhibition was 58%. Besides, the Activity in the assay filed under Homo sapiens [5] turned out to be 51%. Besides, the pKi in [3] came out at 6.89; in assay [8], 3.82. The Ki in assay [9] amounted to 0.0014 µM; in assay [10] it was 0.239 µM.

The values above are taken from ChEMBL document CHEMBL4354864, “Bicyclic α-Iminophosphonates as High Affinity Imidazoline I2 Receptor Ligands for Alzheimer's Disease” (J Med Chem, 2020).
